Measured values published in patent publication US8552176B2 (priority 2010, dated 2013).

What was measured:
HS 578T = experiment: NCI 60 Human Tumor Cell Line Anticancer Screen; format: cell-based; settings: Breast
HOP-92 = experiment: NCI 60 Human Tumor Cell Line Anticancer Screen; format: cell-based; settings: HOP-92, Non-small cell lung
786-0 = experiment: NCI 60 Human Tumor Cell Line Anticancer Screen; format: cell-based; settings: 786-0, Renal
PC-3 = experiment: NCI 60 Human Tumor Cell Line Anticancer Screen; format: cell-based; settings: PC-3, Prostate
NCI-H460 = experiment: cells; format: cell-based, human; settings: read-out: GI50 NCI-H460 lung
SF-539 = experiment: NCI 60 Human Tumor Cell Line Anticancer Screen; format: cell-based; settings: SF-539, CNS
CAKI-1 = experiment: NCI 60 Human Tumor Cell Line Anticancer Screen; format: cell-based; settings: CAKI-1, Renal
MDA-MB-468 = experiment: NCI 60 Human Tumor Cell Line Anticancer Screen; format: cell-based; settings: MDA-MB-468, Breast
IGROV1 = experiment: NCI 60 Human Tumor Cell Line Anticancer Screen; format: cell-based; settings: IGROV1, Ovary
HCT-15 [1] = experiment: NCI 60 Human Tumor Cell Line Anticancer Screen; format: cell-based; settings: HCT-15, Colon
SK-MEL-2 = experiment: NCI 60 Human Tumor Cell Line Anticancer Screen; format: cell-based; settings: SK-MEL-2, Melanoma
HT29 = experiment: cells; format: cell-based, human
ACHN = experiment: NCI 60 Human Tumor Cell Line Anticancer Screen; format: cell-based; settings: Renal
M14 = experiment: NCI 60 Human Tumor Cell Line Anticancer Screen; format: cell-based; settings: M14, Melanoma
SK-MEL-5 = experiment: NCI 60 Human Tumor Cell Line Anticancer Screen; format: cell-based; settings: SK-MEL-5, Melanoma
U251 = experiment: NCI 60 Human Tumor Cell Line Anticancer Screen; format: cell-based; settings: U251, CNS
MOLT-4 = experiment: NCI 60 Human Tumor Cell Line Anticancer Screen; format: cell-based; settings: MOLT-4, Leukemia
SN12C = experiment: NCI 60 Human Tumor Cell Line Anticancer Screen; format: cell-based; settings: Renal
COLO 205 = experiment: NCI 60 Human Tumor Cell Line Anticancer Screen; format: cell-based; settings: COLO 205, Colon
EKVX = experiment: NCI 60 Human Tumor Cell Line Anticancer Screen; format: cell-based; settings: Non-small cell lung
HOP-62 = experiment: NCI 60 Human Tumor Cell Line Anticancer Screen; format: cell-based; settings: HOP-62, Non-small cell lung
A549/ATCC = experiment: NCI 60 Human Tumor Cell Line Anticancer Screen; format: cell-based; settings: Non-small cell lung
DU-145 = experiment: cells; format: cell-based, human; settings: read-out: GI50 DU-145 prostate
HCC-2998 = experiment: NCI 60 Human Tumor Cell Line Anticancer Screen; format: cell-based; settings: HCC-2998, Colon
T-47D = experiment: NCI 60 Human Tumor Cell Line Anticancer Screen; format: cell-based; settings: Breast
SKOV3 [2] = experiment: NCI 60 Human Tumor Cell Line Anticancer Screen; format: cell-based; settings: SKOV3, Ovary
NCI-H23 = experiment: NCI 60 Human Tumor Cell Line Anticancer Screen; format: cell-based; settings: NCI-H23, Non-small cell lung
SW-620 = experiment: NCI 60 Human Tumor Cell Line Anticancer Screen; format: cell-based; settings: SW-620, Colon
MDA-MB-231 = experiment: NCI 60 Human Tumor Cell Line Anticancer Screen; format: cell-based; settings: MDA-MB-231, Breast
CCRF-CEM = experiment: NCI 60 Human Tumor Cell Line Anticancer Screen; format: cell-based; settings: Leukemia
LOX IMVI = experiment: NCI 60 Human Tumor Cell Line Anticancer Screen; format: cell-based; settings: Melanoma
MALME-3M = experiment: NCI 60 Human Tumor Cell Line Anticancer Screen; format: cell-based; settings: Melanoma
SKOV3 [3] = experiment: cells; format: cell-based, human; settings: read-out: GI50 SKOV3 ovary
SNB-75 = experiment: NCI 60 Human Tumor Cell Line Anticancer Screen; format: cell-based; settings: SNB-75, CNS
SF-268 [4] = experiment: cells; format: cell-based, human; settings: read-out: GI50 SF-268 CNS
OVCAR-5 = experiment: NCI 60 Human Tumor Cell Line Anticancer Screen; format: cell-based; settings: OVCAR-5, Ovary
SF-268 [5] = experiment: NCI 60 Human Tumor Cell Line Anticancer Screen; format: cell-based; settings: SF-268, CNS
SF-295 = experiment: NCI 60 Human Tumor Cell Line Anticancer Screen; format: cell-based; settings: SF-295, CNS
HCT-15 [6] = experiment: cells; format: cell-based, human
UACC-62 = experiment: NCI 60 Human Tumor Cell Line Anticancer Screen; format: cell-based; settings: UACC-62, Melanoma

CON(CCCCc1ccc(N(CCCl)CCCl)cc1)C1OCC(O)C1O (stereo not shown) [Compound 60]
GI50 (HS 578T): 24.7 µM
Inhibition at 10 μM (HS 578T; 10 μM): 139.25%
GI50 (HOP-92): 4.03 µM
Inhibition at 10 μM (HOP-92; 10 μM): 58.81%
GI50 (786-0): 6.16 µM
Inhibition at 10 μM (786-0; 10 μM): 67.90%
GI50 (PC-3): 11.7 µM
Inhibition at 10 μM (PC-3; 10 μM): 72.52%
GI50 (NCI-H460): 1.7 ± 0.4 µM
GI50 (SF-539): 8.8 µM
Inhibition at 10 μM (SF-539; 10 μM): 51.79%
GI50 (CAKI-1): 11.5 µM
Inhibition at 10 μM (CAKI-1; 10 μM): 13.59%
GI50 (MDA-MB-468): 7.25 µM
Inhibition at 10 μM (MDA-MB-468; 10 μM): 43.87%
GI50 (IGROV1): 1.21 µM
GI50 (HCT-15 [1]): 19.7 µM
Inhibition at 10 μM (HCT-15 [1]; 10 μM): 77.10%
GI50 (SK-MEL-2): 20.2 µM
Inhibition at 10 μM (SK-MEL-2; 10 μM): 100.16%
improved activity over the parent drug (HT29): 12 fold
GI50 (HT29; read-out: GI50 HT29 colorectal): 0.41 ± 0.06 µM
GI50 (ACHN): 4.34 µM
Inhibition at 10 μM (ACHN; 10 μM): 14.27%
GI50 (M14): 9.25 µM
Inhibition at 10 μM (M14; 10 μM): 67.23%
GI50 (SK-MEL-5): 17.7 µM
Inhibition at 10 μM (SK-MEL-5; 10 μM): 79.00%
GI50 (U251): 13.1 µM
Inhibition at 10 μM (U251; 10 μM): 59.94%
GI50 (MOLT-4): 1.22 µM
Inhibition at 10 μM (MOLT-4; 10 μM): 64.41%
GI50 (SN12C): 7.06 µM
Inhibition at 10 μM (SN12C; 10 μM): 54.23%
GI50 (COLO 205): 12.7 µM
Inhibition at 10 μM (COLO 205; 10 μM): 93.34%
GI50 (EKVX): 37.9 µM
Inhibition at 10 μM (EKVX; 10 μM): 91.24%
GI50 (HOP-62): 8.28 µM
Inhibition at 10 μM (HOP-62; 10 μM): 73.20%
GI50 (A549/ATCC): 12.2 µM
Inhibition at 10 μM (A549/ATCC; 10 μM): 69.72%
GI50 (DU-145): 1.8 ± 0.1 µM
Inhibition at 10 μM (HCC-2998): 73.29%
GI50 (T-47D): 6.37 µM
Inhibition at 10 μM (T-47D; 10 μM): 48.01%
GI50 (SKOV3 [2]): 17.9 µM
Inhibition at 10 μM (SKOV3 [2]; 10 μM): 72.76%
GI50 (NCI-H23): 7.15 µM
Inhibition at 10 μM (NCI-H23; 10 μM): 54.44%
GI50 (SW-620): 12.4 µM
Inhibition at 10 μM (SW-620; 10 μM): 68.08%
GI50 (MDA-MB-231): 1.39 µM
Inhibition at 10 μM (MDA-MB-231; 10 μM): 87.54%
GI50 (CCRF-CEM): 2.36 µM
Inhibition at 10 μM (CCRF-CEM; 10 μM): 21.19%
GI50 (LOX IMVI): 8.61 µM
Inhibition at 10 μM (LOX IMVI; 10 μM): 54.82%
GI50 (MALME-3M): 20.2 µM
Inhibition at 10 μM (MALME-3M; 10 μM): 69.73%
GI50 (SKOV3 [3]): 1.5 ± 0.1 µM
GI50 (SNB-75): 19.5 µM
Inhibition at 10 μM (SNB-75; 10 μM): 66.74%
GI50 (SF-268 [4]): 1.5 ± 0.1 µM
Inhibition at 10 μM (OVCAR-5): 111.11%
GI50 (SF-268 [5]): 5.75 µM
Inhibition at 10 μM (SF-268 [5]; 10 μM): 67.83%
GI50 (SF-295): 6.47 µM
Inhibition at 10 μM (SF-295; 10 μM): 56.59%
improved activity over the parent drug (HCT-15 [6]): 15 fold
GI50 (HCT-15 [6]; read-out: GI50 HCT-15 colorectal): 0.53 ± 0.05 µM
GI50 (UACC-62): 1.69 µM
Inhibition at 10 μM (UACC-62; 10 μM): 52.06%
